# What was measured:
# [1] = Kidney dosimetry by SPECT/CT or SPECT/MRI in patients; assay type: in vivo, human
# Description: CTT1403 localization in various organs is accomplished by estimating dosimetry using SPECT/CT or SPECT/MRI imaging of the radioisotope component (using the gamma particle emission) of CTT1403, ^177Lu, up to 8 days after the first dose. […] Preclinical studies in rats with CTT1403 identified the kidneys as the dose limiting organ. Table 2, below, summarizes kidney dosimetry calculated from the first 15 patients enrolled in the study after receipt of escalating doses of CTT1403 and contrasts it with the predicted kidney exposure from rat studies. […] Preclinical studies in rats estimated expected kidney exposure of ˜5.2 Gy/GBq. […] CTT1403 may be sequestered in tumors and under exposing the kidney.
# [2] = test system: PSMA-expressing PC3-PIP cells; test: Cellular uptake and internalization in PSMA-expressing PC3-PIP cells; assay type: cell-based
# Description: The PSMA binding scaffold of PSMA binds irreversibly to the extracellular enzymatic domain of PSMA leading to rapid internalization by PSMA-expressing cancer cells. Tumor cell uptake of CTT1403 is ˜84% after just 2½ hours (FIG. 1), compared to less than 40% tumor cell uptake of ^177Lu-PSMA-617 (structure shown below), in PSMA-expressing PC3-PIP cells.
# Given that 99% of cell bound CTT1403 is internalized, compared to just 15% of ^177Lu-PSMA-617, targeting by CTT1403 is expected to confer a significant therapeutic advantage. This greater uptake will allow treatment of smaller tumors for a longer time. Both irreversible binding and cellular internalization increases exposure of target tissue to the therapeutic agent. Greater accumulation in the target tissue will permit a lower efficacious dose and/or dosing frequency, thus reducing a patient's total clinical exposure to the radionuclide and improving the therapeutic index.
# [3] = test system: prostate specific antigen (PSA); test: PSA levels in patients after CTT1403 administration; assay type: in vivo, human
# Method: In order to investigate the pharmacokinetics of CTT1403, doses were administered by IV to fifteen subjects. The subjects each had histologically confirmed prostate adenocarcinoma that was metastatic and castration resistant (mCRPA). Subjects with de novo small cell carcinoma of the prostate were excluded. The subjects further had at least three metastatic foci avid for PSMA-specific PET agent CTT1057 or 68Ga-PSMA-11 uptake. PSMA avidity was defined as SUVmax>mediastinal blood pool. The subjects had received docetaxel, were ineligible for docetaxel, or had refused docetaxel. They all further had progression by the PCWG3 criteria during or after treatment with abiraterone, enzalutamide, and/or apalutamide, and had serum testosterone<50 ng/dL. Subjects without a history of bilateral orchiectomy were required to remain on a luteinizing hormone-releasing hormone (LHRH) analog during the course of the protocol therapy.
# Reduction in prostate specific antigen (PSA) at least 12 weeks after therapeutic administration is generally thought to be predictive of therapeutic efficacy. PSA levels at screening, at CTT1403 administration and at specified time points after CTT1403 administration are shown for selected patients enrolled in the trial, including patients still actively under observation (Patients 13, 14, 15). Reduction in PSA compared to Cycle 1, Day 1 has been observed in 4 patients to date: Patient 002 (75% maximum reduction), Patient 4 (40% maximum reduction), Patient 13 (14% reduction to date) and Patient 15 (9% reduction to date).
# [4] = patient 1, injected activity 0.73 GBq (19.6 mCi)
# [5] = patient 2, injected activity 1.50 GBq (40.5 mCi)
# [6] = patient 3, injected activity 2.03 GBq (54.8 mCi)
# [7] = patient 4, injected activity 3.00 GBq (81.1 mCi)
# [8] = patient 5, injected activity 2.95 GBq (79.8 mCi)
# [9] = patient 6, injected activity 2.98 GBq (80.5 mCi)
# [10] = patient 7, injected activity 4.48 GBq (121.1 mCi)
# [11] = patient 8, injected activity 4.52 GBq (122.2 mCi)
# [12] = patient 9, injected activity 3.53 GBq (95.5 mCi)
# [13] = patient 10, injected activity 4.48 GBq (121.2 mCi)
# [14] = patient 11, injected activity 5.66 GBq (153.0 mCi)
# [15] = patient 12, injected activity 5.99 GBq (162.0 mCi)
# [16] = patient 13, injected activity 5.99 GBq (162.0 mCi)
# [17] = patient 14, injected activity 7.98 GBq (215.7 mCi)
# [18] = patient 15, injected activity 7.77 GBq (210.0 mCi)
compound,measurement,setting,value
O=C(O)CC[C@H](NP(=O)(O)OCCC[C@H](NC(=O)CC[C@H](NC(=O)CCCCCNC(=O)CCC(NC(=O)CCOCCOCCOCCOCCNC(=O)CCC(=O)N1Cc2ccccc2-c2c(nnn2CCCNC(=O)CN2CCN3CCN4CCN(CC2)CC(=O)[O][177Lu]([O]C(=O)C3)[O]C(=O)C4)-c2ccccc21)C(=O)NC(CCCCNC(=O)CCCc1ccc(I)cc1)C(=O)O)C(=O)O)C(=O)O)C(=O)O (stereo partly drawn) [CTT1403],"Kidney dose, Dose Gy/GBq",[1]; CTT1403 (7.5 GBq +/− 10%),0.689 Gy/GBq
same,"Kidney dose, Mean Dose (Gy)",[1]; CTT1403 (7.5 GBq +/− 10%),4.895 Gy
same,Kidney dosimetry calculated from the first 15 patients,"[1]; first 15 patients enrolled, escalating doses",0.687 Gy/GBq
same,factor by which clinical kidney dosimetry is lower than predicted by rat studies,[1]; first 15 patients vs rat prediction,~10
same,absorbed dose (Gy) - L. kidney,[1]; [4],0.441 Gy
same,absorbed dose (Gy) - R. kidney,[1]; [4],0.430 Gy
same,absorbed dose per GBq (Gy/GBq) - L. kidney,[1]; [4],0.608 Gy/GBq
same,absorbed dose per GBq (Gy/GBq) - R. kidney,[1]; [4],0.593 Gy/GBq
same,absorbed dose (Gy) - L. kidney,[1]; [5],0.915 Gy
same,absorbed dose (Gy) - R. kidney,[1]; [5],0.876 Gy
same,absorbed dose per GBq (Gy/GBq) - L. kidney,[1]; [5],0.610 Gy/GBq
same,absorbed dose per GBq (Gy/GBq) - R. kidney,[1]; [5],0.584 Gy/GBq
same,absorbed dose (Gy) - L. kidney,[1]; [6],1.54 Gy
same,absorbed dose (Gy) - R. kidney,[1]; [6],2.07 Gy
same,absorbed dose per GBq (Gy/GBq) - L. kidney,[1]; [6],0.757 Gy/GBq
same,absorbed dose per GBq (Gy/GBq) - R. kidney,[1]; [6],1.020 Gy/GBq
same,absorbed dose (Gy) - L. kidney,[1]; [7],1.97 Gy
same,absorbed dose (Gy) - R. kidney,[1]; [7],1.70 Gy
same,absorbed dose per GBq (Gy/GBq) - L. kidney,[1]; [7],0.655 Gy/GBq
same,absorbed dose per GBq (Gy/GBq) - R. kidney,[1]; [7],0.565 Gy/GBq
same,absorbed dose (Gy) - L. kidney,[1]; [8],4.41 Gy
same,absorbed dose (Gy) - R. kidney,[1]; [8],4.84 Gy
same,absorbed dose per GBq (Gy/GBq) - L. kidney,[1]; [8],1.494 Gy/GBq
same,absorbed dose per GBq (Gy/GBq) - R. kidney,[1]; [8],1.638 Gy/GBq
same,absorbed dose (Gy) - L. kidney,[1]; [9],2.75 Gy
same,absorbed dose (Gy) - R. kidney,[1]; [9],2.65 Gy
same,absorbed dose per GBq (Gy/GBq) - L. kidney,[1]; [9],0.922 Gy/GBq
same,absorbed dose per GBq (Gy/GBq) - R. kidney,[1]; [9],0.889 Gy/GBq
same,absorbed dose (Gy) - L. kidney,[1]; [10],2.54 Gy
same,absorbed dose (Gy) - R. kidney,[1]; [10],2.83 Gy
same,absorbed dose per GBq (Gy/GBq) - L. kidney,[1]; [10],0.567 Gy/GBq
same,absorbed dose per GBq (Gy/GBq) - R. kidney,[1]; [10],0.632 Gy/GBq
same,absorbed dose (Gy) - L. kidney,[1]; [11],3.45 Gy
same,absorbed dose (Gy) - R. kidney,[1]; [11],3.54 Gy
same,absorbed dose per GBq (Gy/GBq) - L. kidney,[1]; [11],0.764 Gy/GBq
same,absorbed dose per GBq (Gy/GBq) - R. kidney,[1]; [11],0.784 Gy/GBq
same,absorbed dose (Gy) - L. kidney,[1]; [12],1.71 Gy
same,absorbed dose (Gy) - R. kidney,[1]; [12],1.85 Gy
same,absorbed dose per GBq (Gy/GBq) - L. kidney,[1]; [12],0.484 Gy/GBq
same,absorbed dose per GBq (Gy/GBq) - R. kidney,[1]; [12],0.522 Gy/GBq
same,absorbed dose (Gy) - L. kidney,[1]; [13],2.26 Gy
same,absorbed dose (Gy) - R. kidney,[1]; [13],2.75 Gy
same,absorbed dose per GBq (Gy/GBq) - L. kidney,[1]; [13],0.505 Gy/GBq
same,absorbed dose per GBq (Gy/GBq) - R. kidney,[1]; [13],0.612 Gy/GBq
same,absorbed dose (Gy) - L. kidney,[1]; [14],3.32 Gy
same,absorbed dose (Gy) - R. kidney,[1]; [14],3.08 Gy
same,absorbed dose per GBq (Gy/GBq) - L. kidney,[1]; [14],0.587 Gy/GBq
same,absorbed dose per GBq (Gy/GBq) - R. kidney,[1]; [14],0.543 Gy/GBq
same,absorbed dose (Gy) - L. kidney,[1]; [15],3.15 Gy
same,absorbed dose (Gy) - R. kidney,[1]; [15],2.81 Gy
same,absorbed dose per GBq (Gy/GBq) - L. kidney,[1]; [15],0.525 Gy/GBq
same,absorbed dose per GBq (Gy/GBq) - R. kidney,[1]; [15],0.469 Gy/GBq
same,absorbed dose (Gy) - L. kidney,[1]; [16],2.65 Gy
same,absorbed dose (Gy) - R. kidney,[1]; [16],2.50 Gy
same,absorbed dose per GBq (Gy/GBq) - L. kidney,[1]; [16],0.443 Gy/GBq
same,absorbed dose per GBq (Gy/GBq) - R. kidney,[1]; [16],0.417 Gy/GBq
same,absorbed dose (Gy) - L. kidney,[1]; [17],5.53 Gy
same,absorbed dose (Gy) - R. kidney,[1]; [17],5.41 Gy
same,absorbed dose per GBq (Gy/GBq) - L. kidney,[1]; [17],0.693 Gy/GBq
same,absorbed dose per GBq (Gy/GBq) - R. kidney,[1]; [17],0.678 Gy/GBq
same,absorbed dose (Gy) - L. kidney,[1]; [18],4.89 Gy
same,absorbed dose (Gy) - R. kidney,[1]; [18],3.75 Gy
same,absorbed dose per GBq (Gy/GBq) - L. kidney,[1]; [18],0.629 Gy/GBq
same,absorbed dose per GBq (Gy/GBq) - R. kidney,[1]; [18],0.482 Gy/GBq
same,cell bound agent that is internalized,[2]; PSMA-expressing PC3-PIP cells,99%
same,Tumor cell uptake,"[2]; after 2½ hours, PSMA-expressing PC3-PIP cells (FIG. 1)",~84%
same,"Reduction in PSA compared to Cycle 1, Day 1","[3]; Patient 002, maximum reduction",75%
same,"Reduction in PSA compared to Cycle 1, Day 1","[3]; Patient 4, maximum reduction",40%
same,"Reduction in PSA compared to Cycle 1, Day 1","[3]; Patient 13, reduction to date",14%
same,"Reduction in PSA compared to Cycle 1, Day 1","[3]; Patient 15, reduction to date",9%
same,PSA Result,"[3]; patient 2 (1.50 GBq), 4 Weeks Post Treatment",405.6 µg/L
same,PSA Result,"[3]; patient 2 (1.50 GBq), 8 Weeks Post Treatment",167.013 µg/L
same,PSA Result,"[3]; patient 2 (1.50 GBq), 12 Weeks Post Treatment",45.716 µg/L
same,PSA Result,"[3]; patient 2 (1.50 GBq), Cycle 1-Day 1",162.353 µg/L
same,PSA Result,"[3]; patient 2 (1.50 GBq), Cycle 1-Day 22",185.132 µg/L
same,PSA Result,"[3]; patient 2 (1.50 GBq), Cycle 2-Day 1",194.320 µg/L
same,PSA Result,"[3]; patient 2 (1.50 GBq), End of Treatment",215.919 µg/L
same,PSA Result,"[3]; patient 4 (3.00 GBq), 8 Weeks Post Treatment",41.80 µg/L
same,PSA Result,"[3]; patient 4 (3.00 GBq), Cycle 1-Day 1",65.684 µg/L
same,PSA Result,"[3]; patient 4 (3.00 GBq), Cycle 1-Day 22",77.876 µg/L
same,PSA Result,"[3]; patient 4 (3.00 GBq), End of Treatment",115.658 µg/L
same,PSA Result,"[3]; patient 4 (3.00 GBq), Screening (before dosing)",70.228 µg/L
same,PSA Result,"[3]; patient 13 (5.99 GBq), Cycle 1-Day 1",146.133 µg/L
same,PSA Result,"[3]; patient 13 (5.99 GBq), Cycle 1-Day 22",148.217 µg/L
same,PSA Result,"[3]; patient 13 (5.99 GBq), Cycle 2-Day 1",135.620 µg/L
same,PSA Result,"[3]; patient 13 (5.99 GBq), Cycle 2-Day 22",126.392 µg/L
same,PSA Result,"[3]; patient 13 (5.99 GBq), Screening (before dosing)",166.793 µg/L
same,PSA Result,"[3]; patient 14 (7.98 GBq), Cycle 1-Day 1",22.642 µg/L
same,PSA Result,"[3]; patient 14 (7.98 GBq), Cycle 1-Day 22",142 µg/L
same,PSA Result,"[3]; patient 14 (7.98 GBq), Screening (before dosing)",16.310 µg/L
same,PSA Result,"[3]; patient 15 (7.77 GBq), Cycle 1-Day 1",595.739 µg/L
same,PSA Result,"[3]; patient 15 (7.77 GBq), Cycle 1-Day 22",543.5 µg/L
same,PSA Result,"[3]; patient 15 (7.77 GBq), Screening (before dosing)",410.363 µg/L

# — patent publication US20230064292A1, “METHODS OF TREATING PSMA-POSITIVE CANCER USING RADIONUCLIDE THERAPY” (priority 2020, published 2023)
